Measurements from the supplement of paper PMC11061612.

Columns and labels:
Test in all cases: combination Emax (second highest fraction inhibited in the dose matrix, 72 h); higher = more inhibition; extreme values may be limits of the assay
[1] = tested on: CHSA8926 (Chondrosarcoma)
Outline: (§1)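 Bliss excess equals the observed combination effect minus the expected value EA + EB − EA·EB, where EA and EB are the effects of each agent alone. Combination Emax is the second-highest inhibition within the matrix. Inhibition was scaled from CellTiter-Glo 2.0 luminescence, with 0 set by vehicle wells and 1 by blank wells, after 72 hours of two-drug dosing of cells plated in 1536-well plates.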

[2] = tested on: CW-2 (Colorectal Carcinoma)
Outline: as §1

[3] = tested on: DAN-G (Pancreatic Carcinoma)
Outline: as §1

[4] = tested on: DMS-114 (Small Cell Lung Carcinoma)
Outline: as §1

[5] = tested on: ESO51 (Esophageal Adenocarcinoma)
Outline: as §1

G-361 (Melanoma) = tested on: G-361 (Melanoma)
Outline: as §1

[6] = tested on: H9 (T-Cell Non-Hodgkin's Lymphoma)
Outline: as §1

[7] = tested on: HCC1187 (Breast Carcinoma)
Outline: as §1

[8] = tested on: HCC1419 (Breast Carcinoma)
Outline: as §1

[9] = tested on: MOG-G-CCM (Low Grade Glioma)
Outline: as §1

[10] = tested on: MOLM-13 (Acute Myeloid Leukemia)
Outline: as §1

[11] = tested on: NCCIT (Other Solid Carcinomas)
Outline: as §1

[12] = tested on: NCI-H661 (Non-Small Cell Lung Carcinoma)
Outline: as §1

[13] = tested on: NCI-H929 (Plasma Cell Myeloma)
Outline: as §1

[14] = tested on: PC-3 (Prostate Carcinoma)
Outline: as §1

[15] = tested on: RPMI-8226 (Plasma Cell Myeloma)
Outline: as §1

SJSA-1 (Osteosarcoma) = tested on: SJSA-1 (Osteosarcoma)
Outline: as §1

[16] = tested on: SNU-398 (Hepatocellular Carcinoma)
Outline: as §1

[17] = tested on: SUP-B15 (B-Lymphoblastic Leukemia)
Outline: as §1

[18] = tested on: T-T (Esophageal Squamous Cell Carcinoma)
Outline: as §1

Compound	combination Emax [1]	combination Emax [2]	combination Emax [3]	combination Emax [4]	combination Emax [5]	combination Emax (G-361 (Melanoma))	combination Emax [6]	combination Emax [7]	combination Emax [8]	combination Emax [9]	combination Emax [10]	combination Emax [11]	combination Emax [12]	combination Emax [13]	combination Emax [14]	combination Emax [15]	combination Emax (SJSA-1 (Osteosarcoma))	combination Emax [16]	combination Emax [17]	combination Emax [18]
CN(CCO)CC[C@H](CSc1ccccc1)Nc1ccc(S(=O)(=O)NC(=O)c2ccc(N3CCC([C@@H](O)c4ccccc4-c4ccc(Cl)cc4)CC3)cc2)cc1S(=O)(=O)C(F)(F)F [AZD4320] + Cn1cnc2c(F)c(Nc3ccc(Br)cc3Cl)c(C(=O)NOCCO)cc21 [Selumetinib] (first compound max 1 µM, 7x7, partner max 3 µM)	0.643	0.216	0.413	0.358	0.476	0.849	1	0.377	0.336	0.576	1	0.224	0.264	0.631	0.352	0.965	0.429	0.38	1	0.325
C=CCn1c(=O)c2cnc(Nc3ccc(N4CCN(C)CC4)cc3)nc2n1-c1cccc(C(C)(C)O)n1 [AZD1775] + C1CN(CCC1(C(=O)N[C@@H](CCO)C2=CC=C(C=C2)Cl)N)C3=NC=NC4=C3C=CN4 [Capivasertib] (first compound max 3 µM, partner max 3 µM)	0.578	0.522	0.848	0.649	0.814	0.724	0.95	0.936	0.282	0.748	1	0.963	0.648	0.981	0.394	0.822	0.634	0.786	0.954	0.618
CN(CCO)CC[C@H](CSc1ccccc1)Nc1ccc(S(=O)(=O)NC(=O)c2ccc(N3CCC([C@@H](O)c4ccccc4-c4ccc(Cl)cc4)CC3)cc2)cc1S(=O)(=O)C(F)(F)F [AZD4320] + Cc1cc2ncnn2cc1Nc1ncc2c(n1)n(C1CCOCC1)c(=O)n2C [AZD7648] (first compound max 1 µM, 7x7, partner max 10 µM)	0.688	0.154	0.474	0.321	0.149	0.205	0.99	0.114	0.278	0.558	1	0.243	0.0745	0.737	0.213	0.965	0.283	0.261	1	0.106
Cc1c2c(nn1C)CSCc1cc(n(C)n1)CSc1cc(c3ccccc3c1)OCCCc1c(C(=O)O)n(C)c3c-2c(Cl)ccc13 [AZD5991] + CC1(C)CCC(CN2CCN(c3ccc(C(=O)NS(=O)(=O)c4ccc(NCC5CCOCC5)c([N+](=O)[O-])c4)c(Oc4cnc5[nH]ccc5c4)c3)CC2)=C(c2ccc(Cl)cc2)C1 [Venetoclax] (first compound max 1 µM, 7x7, partner max 1 µM)	0.506	0.151	0.247	0.911	0.187	0.968	0.693	0.997	0.275	0.433	1	0.692	0.561	1	0.171	1	0.296	1	1	0.908
Cc1cc2ncnn2cc1Nc1ncc2c(n1)n(C1CCOCC1)c(=O)n2C [AZD7648] + CCN(CCO)CCCOc1ccc2c(Nc3cc(CC(=O)Nc4cccc(F)c4)[nH]n3)ncnc2c1 [AZD2811] (first compound max 10 µM, 7x7, partner max 1 µM)	0.47	0.164	0.554	0.306	0.227	0.359	0.722	0.824	0.285	0.445	1	0.334	0.308	0.838	0.243	0.392	0.359	0.363	0.875	0.276
CN(CCO)CC[C@H](CSc1ccccc1)Nc1ccc(S(=O)(=O)NC(=O)c2ccc(N3CCC([C@@H](O)c4ccccc4-c4ccc(Cl)cc4)CC3)cc2)cc1S(=O)(=O)C(F)(F)F [AZD4320] + C[C@@H](Nc1cc(F)cc(F)c1)c1cc(C(=O)N(C)C)cc2c(=O)cc(N3CCOCC3)oc12 [AZD8186] (first compound max 1 µM, 7x7, partner max 3 µM)	0.863	0.149	0.344	0.362	0.336	0.332	0.958	0.35	0.342	0.728	1	0.329	0.308	0.792	0.437	0.968	0.315	0.273	1	0.305
CC1(C)CCC(CN2CCN(c3ccc(C(=O)NS(=O)(=O)c4ccc(NCC5CCOCC5)c([N+](=O)[O-])c4)c(Oc4cnc5[nH]ccc5c4)c3)CC2)=C(c2ccc(Cl)cc2)C1 [Venetoclax] + C[C@@H](Nc1cc(F)cc(F)c1)c1cc(C(=O)N(C)C)cc2c(=O)cc(N3CCOCC3)oc12 [AZD8186] (first compound max 1 µM, 7x7, partner max 3 µM)	0.478	0.0925	0.0841	0.113	0.334	0.248	0.299	0.138	0.181	0.398	1	0.177	0.164	0.811	0.312	0.194	0.123	0.166	1	0.172
COc1cc2c(cc1OCCCCCOc1cc3c(cc1OC)C(=O)N1C=C(C)C[C@H]1C=N3)N=C[C@@H]1CC(C)=CN1C2=O [SG3199] + O=C(c1cc(Cc2n[nH]c(=O)c3ccccc23)ccc1F)N1CCN(C(=O)C2CC2)CC1 [Olaparib] (first compound max 0.001 µM, 7x7, partner max 10 µM)	0.355	0.0839	0.137	0.0991	0.138	0.0716	0.0468	0.204	0.0746	0.0595	0.554	0.0982	0.133	0.192	0.159	0.165	0.159	0.175	0.921	0.114
COc1cc2ncnc(Nc3ccc(F)c(Cl)c3)c2cc1OCCCN1CCOCC1 [Gefitinib] + CC(C)n1c(=O)n(C)c2cnc3cc(F)c(-c4ccc(OCCCN5CCCCC5)nc4)cc3c21 [AZD1390] (first compound max 10 µM, 7x7, partner max 0.3 µM)	0.194	0.41	0.0121	0.255	0.188	0.812	0.47	0.108	0.425	0.137	0.776	0.418	0.0361	0.187	0.0447	0.0829	0.0992	0.0256	0.0538	0.411
Cc1cc2ncnn2cc1Nc1ncc2c(n1)n(C1CCOCC1)c(=O)n2C [AZD7648] + C[C@@H]1COCCN1C2=NC(=NC(=C2)C3(CC3)[S@](=N)(=O)C)C4=C5C=CNC5=NC=C4 [AZD6738] (first compound max 10 µM, 7x7, partner max 10 µM)	0.428	0.461	0.643	0.54	0.744	0.45	0.964	0.278	0.327	0.577	0.998	0.641	0.56	0.846	0.402	0.855	0.435	0.46	0.848	0.531
CC1(C)CCC(CN2CCN(c3ccc(C(=O)NS(=O)(=O)c4ccc(NCC5CCOCC5)c([N+](=O)[O-])c4)c(Oc4cnc5[nH]ccc5c4)c3)CC2)=C(c2ccc(Cl)cc2)C1 [Venetoclax] + C[C@@H]1COCCN1C2=NC(=NC(=C2)C3(CC3)[S@](=N)(=O)C)C4=C5C=CNC5=NC=C4 [AZD6738] (first compound max 1 µM, 7x7, partner max 10 µM)	0.469	0.403	0.719	0.564	0.82	0.599	1	0.501	0.343	0.538	1	0.607	0.654	0.78	0.517	0.962	0.478	0.673	1	0.485
C=CCn1c(=O)c2cnc(Nc3ccc(N4CCN(C)CC4)cc3)nc2n1-c1cccc(C(C)(C)O)n1 [AZD1775] + C[C@@H]1COCCN1C2=NC(=NC(=C2)C3(CC3)[S@](=N)(=O)C)C4=C5C=CNC5=NC=C4 [AZD6738] (first compound max 1 µM, partner max 10 µM)	0.461	0.682	0.763	0.511	0.754	0.676	1	0.683	0.221	0.682	0.999	0.905	0.689	0.713	0.498	0.983	0.393	0.563	0.914	0.73
